In publication PMC9775177, “NLRP3-Inflammasome Inhibition with IZD334 Does Not Reduce Cardiac Damage in a Pig Model of Myocardial Infarction” (Biomedicines, 2022):
Where “and” joins values, the source holds several entries; their conditions need not be identical. Identical values can stand only once.

What was measured:
[1] = IZD334 plasma concentrations in pigs subjected to MI; assay type: in vivo
Method: (§1) Oral treatment was continued for six days. […] Animals were sacrificed by exsanguination under anesthesia.
(§2) In vivo IZD334 concentrations were measured in plasma samples using mass-spectrometry. IZD334 content was quantified using positive ionization mode and multiple reaction monitoring on a Sciex API 5500 Mass spectrometer (MRM transition: 392.0 > 176.1).

[2] = system: pig model of myocardial infarction; assay: In vivo MI study: regional cardiac function and dobutamine echocardiography; set-up: species or system pigs; settings: high-dose group (10 mg/kg), 7 days follow-up
Description: as §1
Images were made using a X7-2T transducer on an iE33 ultrasound device (Philips, Eindhoven, The Netherlands). The pig was placed in the right lateral position, and the echo probe was inserted 50–60 cm into the esophagus. We used the 3D full volume option and temporarily interrupted mechanical ventilation to assess LV geometry and function. On day 7 we additionally obtained dobutamine stress-echocardiography to assess regional cardiac function. Images were analyzed in a blinded fashion with validated software, QLab 10.7 (Philips, Eindhoven, The Netherlands).

[3] = system: pig model of myocardial infarction; assay: In vivo MI study: cardiac volumes and function by cardiac magnetic resonance; set-up: species or system pigs; settings: CMR, 10 mg/kg IV loading dose, 7 days after MI
Method: as §1
Animals were placed on the CMR table in a supine position, under continuous sedation as described above. Steady-state free precession (SSFP) short axis images from the left ventricle (LV) base through the LV apex were used for the quantification of LV volumes, ejection fraction (EF), and mass. Imaging was performed using a respiratory-corrected, cardiac-gated SSFP in sequence. CMR images were anonymized and analyzed offline using MedisSuite (Medis Medical Imaging Systems, version 3.1, Leiden, The Netherlands).

NLRP3-inflammasome [4] = assay: Ex vivo stimulation assay of whole blood after in vivo IZD334 infusion, IL-1β release; set-up: species or system pigs; settings: whole blood taken 60 min after in vivo infusion of 10 mg/kg, LPS + ATP; before infusion 11856 ± 1969 ng/mL, p < 0.001
Method: To more specifically determine in vivo target engagement, whole blood was obtained at baseline (prior to IZD334 infusion) and 60 min after in vivo IZD334 infusion (10 mg/kg). These samples were then stimulated with LPS and ATP in a similar fashion as in the previously described experiments. IL-1β release was measured in the supernatant with a Luminex Immunoassay specific for porcine IL-1β (ProcartaTM Simplex, eBioscience, San Diego, CA, USA).

[5] = Pharmacokinetics study in healthy pigs; assay type: in vivo
Method: Healthy female pigs (n = 3) were given intravenous (IV) treatment with IZD334 (3 mg/kg) via a 30 min infusion, and blood was collected at multiple timepoints and analyzed to determine pharmacokinetics. After a wash-out period of 3 days, the pigs received an oral dose (10 mg/kg), and plasma was again collected and analyzed.
as §2
At multiple time points (0.033, 0.083, 0.17, 0.25, 0.50, 1.0, 2.0, 3.0, 4.0, 6.0, 8.0, 12.0, 24.0 h) after dosing, plasma was collected by whole-blood centrifugation at 1850× g, and samples were immediately stored to determine pharmacokinetics. After a wash-out period of 3 days, the pigs received an oral dose (10 mg/kg), and plasma was collected again at multiple time points (0.25, 0.50, 0.75, 1.0, 2.0, 3.0, 4.0, 6.0, 8.0, 12.0, 24.0 h) for pharmacokinetic purposes. Samples were sent to Sygnature Discovery (Nottingham, United Kingdom) to determine circulating levels of IZD334.
The volume of distribution at steady state (Vdss) is defined as the total concentration of IZD334 in the entire body divided by IZD334 plasma concentration. Drug clearance (Cl) was calculated by dividing the total administered dose with the area under the curve. Maximal concentration (Cmax) was obtained by calculating the mean of the highest concentrations of the separate pigs. Bioavailability (F%) was calculated using the following equation: (100 ∗ ((area under the curve oral dose × IV dose)/(area under the curve IV dose × oral dose))).

NLRP3-inflammasome [6] = assay: In vitro stimulation of porcine PBMCs with LPS and ATP, IL-1β release; assay type: cell-based; settings: porcine PBMCs and whole blood, LPS 1 µg/mL 3 h, then 5 mM ATP 1 h
Method: To confirm the ability of IZD334 to effectively attenuate porcine NLRP3-inflammasome signaling, we used a previously standardized study protocol. In short, porcine peripheral blood mononuclear cells (PBMCs) were isolated from healthy porcine animals. Whole blood samples and isolated PBMCs were stimulated with lipopolysaccharide (LPS) (1 µg/mL, L4516, Sigma-Aldrich, St. Louis, MO, USA) and increasing concentrations of IZD334. After three h of incubation, 5 mM adenosine triphosphate (ATP) (A1852, Sigma-Aldrich, St. Louis, MO, USA) was added for 1 h to induce inflammasome activation. IL-1β release was measured in the supernatant with a Luminex Immunoasssay specific for porcine IL-1β (EPX01A-66048-901, ProcartaTM Simplex, eBioscience, ThermoFisher, San Diego, CA, USA).
In short, porcine peripheral blood mononuclear cells (PBMCs) were isolated from healthy porcine animals using Ficoll density-gradient centrifugation. Whole blood samples and isolated PBMCs were stimulated with lipopolysaccharide (LPS) (1 µg/mL, L4516, Sigma-Aldrich, St. Louis, MO, USA) and increasing concentrations of IZD334 (top concentration of 10 µM with an 8-point half-log dilution). […] IL-1β release was measured in the supernatant with a Luminex Immunoasssay specific for porcine IL-1β (ProcartaTM Simplex, eBioscience, San Diego, CA, USA).

[7] = then 1 mg/kg oral once daily, n = 6
[8] = then 3 mg/kg oral once daily, n = 7
[9] = then 10 mg/kg oral once daily, n = 7
[10] = healthy pigs n = 3, PO 10 mg/kg

CCN1CCC(S(=O)(=O)[N-]C(=O)Nc2c3c(cc4c2CCC4)CCC3)CC1.[K+] [IZD334]
Concentration (ng/mL) Mean ([1]; 1 mg/kg group (10 mg/kg IV loading dose), Reperfusion + 4 h, n = 6): 13,192 ng/mL | Concentration (ng/mL) Mean ([1]; 1 mg/kg oral once daily group, Day 1, n = 6): 1434 ng/mL | Concentration (ng/mL) Mean ([1]; 1 mg/kg oral once daily group, Day 2, n = 6): 795 ng/mL | Concentration (ng/mL) Mean ([1]; 1 mg/kg oral once daily group, Day 3, n = 6): 555 ng/mL | Concentration (ng/mL) Mean ([1]; 1 mg/kg oral once daily group, Day 7, n = 6): 44 ng/mL | Concentration (ng/mL) Mean ([1]; 3 mg/kg group (10 mg/kg IV loading dose), Reperfusion + 4 h, n = 7): 11,992 ng/mL | Concentration (ng/mL) Mean ([1]; 3 mg/kg oral once daily group, Day 1, n = 7): 2090 ng/mL | Concentration (ng/mL) Mean ([1]; 3 mg/kg oral once daily group, Day 2, n = 7): 1501 ng/mL | Concentration (ng/mL) Mean ([1]; 3 mg/kg oral once daily group, Day 3, n = 7): 1190 ng/mL | Concentration (ng/mL) Mean ([1]; 3 mg/kg oral once daily group, Day 7, n = 7): 120 ng/mL | Concentration (ng/mL) Mean ([1]; 10 mg/kg group (10 mg/kg IV loading dose), Reperfusion + 4, n = 7): 12,312 ng/mL | Concentration (ng/mL) Mean ([1]; 10 mg/kg oral once daily group, Day 1, n = 7): 4522 ng/mL | Concentration (ng/mL) Mean ([1]; 10 mg/kg oral once daily group, Day 2, n = 7): 4213 ng/mL | Concentration (ng/mL) Mean ([1]; 10 mg/kg oral once daily group, Day 3, n = 7): 3887 ng/mL | Concentration (ng/mL) Mean ([1]; 10 mg/kg oral once daily group, Day 7, n = 7): 233 ng/mL | Fractional area changes at mitral, mid-ventricular, and apical levels versus placebo ([2]; data not shown): equal between groups | Septal and inferolateral systolic wall thickness and thickening versus placebo ([2]; mid-ventricular level): did not differ between these groups | EDV [3, 7]: 150 ± 26 mL and 149.6 ± 26.2 mL | EF% [3, 7]: 49.9 ± 6.1% | ESV [3, 7]: 72 ± 19 mL and 71.5 ± 18.7 mL | EDV [3, 8]: 151 ± 8 mL and 151.4 ± 7.6 mL | EF% [3, 8]: 42.7 ± 3.8% | ESV [3, 8]: 87 ± 8 mL and 86.8 ± 8.2 mL | EDV [3, 9]: 144 ± 22 mL and 144.0 ± 22.0 mL | EF% [3, 9]: 44.9 ± 6.4% | ESV [3, 9]: 80 ± 19 mL and 80.0 ± 18.9 mL | IL-1β release after ex vivo stimulation (NLRP3-inflammasome [4]): 3968 ng/mL | AUC0-inf (ng.h/mL) ([5]; healthy pigs n = 3, IV 3 mg/kg): 27,786 ng.h/mL | Cl ([5]; healthy pigs n = 3, IV 3 mg/kg): 1.8 mL/min/kg | MRT0-inf ([5]; healthy pigs n = 3, IV 3 mg/kg): 5.3 h | Vdss ([5]; healthy pigs n = 3, IV 3 mg/kg): 0.58 L/kg | T1/2 ([5]; healthy pigs n = 3, IV 3 mg/kg, 30 min infusion): 3.9 h | AUC0-inf (ng.h/mL) [5, 10]: 86,337 ng.h/mL | Cmax (ng/mL) [5, 10]: 12,116 ng/mL | F% (bioavailability) ([5]; healthy pigs n = 3, PO 10 mg/kg versus IV 3 mg/kg): 93% | time that plasma concentrations sufficient for effective inhibition were maintained ([5]; healthy pigs, IV 3 mg/kg, based on extrapolation of in vitro results): 24 h | circulating levels 24 h after compound administration ([5]; healthy pigs, PO 10 mg/kg): adequate circulating levels | IL-1β release (NLRP3-inflammasome [6]): dose-dependently reduced IL-1β release
